This is an account of results in patent US12421212B2, “Substituted benzenecarboxamides as IL-17A modulators” (DiCE Alpha, Inc., priority 2019, dated 2025).

SMILES strings stand for the structures.

One experiment deals with T1, IL-17A/A (Homo sapiens, UniProt Q16552).
T1 construct: purchased Genscript Z03228
T1 sequence (Q16552 24-155): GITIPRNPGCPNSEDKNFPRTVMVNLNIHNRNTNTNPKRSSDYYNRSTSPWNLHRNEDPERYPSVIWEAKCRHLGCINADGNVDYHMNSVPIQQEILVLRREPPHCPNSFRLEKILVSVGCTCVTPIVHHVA
The experiment is described as follows: IL-17A/A HEK-Blue Cell Assay. Particulars: HEK-Blue IL-17A reporter cell line, SEAP readout at A630, 20 hours incubation with IL-17A/A; top concentration 10 uM, 1 uM or 0.3 uM. It is filed as cell-based.
On to `CCn1nccc1C(=O)N[C@H](C(=O)Nc1ccc([C@H](C)[C@@H](NC(=O)c2cnsc2)C(=O)N2CCN(C)CC2)cc1F)[C@H]1CC[C@H](C)CC1` [Compound 487], for which the “IL-17A/A inhibition (pIC50)” value is on record as “B (8>B≥7 as B)”.

The same experiment, now with this note: HEK-Blue IL-17A reporter cell line, SEAP readout at A630, 20 hours incubation with IL-17A/A; top concentration 10 uM, 1 uM or 0.3 uM; read-out: IL-17A/A inhibition (pIC50) (converted).
For `CCn1nccc1C(=O)N[C@H](C(=O)Nc1ccc([C@H](C)[C@@H](NC(=O)C(C)(F)F)C(=O)N2CCN(C)CC2)cc1F)[C@H]1CC[C@H](C)CC1` [Compound 471], the IC50 is 10 to 100 nM.
The same measure, in the same setting: next, `CCn1nccc1C(=O)N[C@H](C(=O)Nc1ccc([C@H](C)[C@@H](NC(=O)[C@H](C)F)C(=O)N2CCN(C)CC2)cc1F)[C@H]1CC[C@H](C)CC1` [Compound 472]: 10 to 100 nM.
With `CCn1nccc1C(=O)N[C@H](C(=O)Nc1ccc([C@H](C)[C@@H](NC(=O)c2nonc2C)C(=O)N2CCN(C)CC2)cc1F)[C@H]1CC[C@H](C)CC1` [Compound 473], the IC50 was 10 to 100 nM.
Consider `CCn1nccc1C(=O)N[C@H](C(=O)Nc1ccc([C@H](C)[C@@H](NC(=O)[C@H](C)CC(=O)O)C(=O)N2CCN(C)CC2)cc1F)[C@H]1CC[C@H](C)CC1` [Compound 474], for which the IC50 was 10 to 100 nM.
Take `CCn1nccc1C(=O)N[C@H](C(=O)Nc1ccc([C@H](C)[C@@H](NC(=O)[C@H](C)OC)C(=O)N2CCN(C)CC2)cc1F)[C@H]1CC[C@H](C)CC1` [Compound 476]: the IC50 was under 10 nM.
Take `CCn1nccc1C(=O)N[C@H](C(=O)Nc1ccc([C@H](C)[C@@H](NC(=O)[C@@H]2CCCO2)C(=O)N2CCN(C)CC2)cc1F)[C@H]1CC[C@H](C)CC1` [Compound 477]: the IC50 is 10 to 100 nM.
The same measure, in the same setting: for `CCn1nccc1C(=O)N[C@H](C(=O)Nc1ccc([C@H](C)[C@@H](NC(=O)COC)C(=O)N2CCN(C)CC2)cc1F)[C@H]1CC[C@H](C)CC1` [Compound 478] the value was 10 to 100 nM.
On the same count and under the same terms, next, `CCn1nccc1C(=O)N[C@H](C(=O)Nc1ccc([C@H](C)[C@@H](NC(=O)C(C)(F)F)C(=O)N2CCN(C)[C@@H](C)C2)cc1F)[C@H]1CC[C@H](C)CC1` [Compound 479]: under 10 nM; `CCn1nccc1C(=O)N[C@H](C(=O)Nc1ccc([C@H](C)[C@@H](NC(=O)C(C)(F)F)C(=O)N2CCN(C)[C@H](C)C2)cc1F)[C@H]1CC[C@H](C)CC1` [Compound 480]: under 10 nM; `CCn1nccc1C(=O)N[C@H](C(=O)Nc1ccc([C@H](C)[C@@H](NC(=O)C(F)(F)CC)C(=O)N2CCN(C)[C@H](C)C2)cc1F)[C@H]1CC[C@H](C)CC1` [Compound 481]: under 10 nM.
For the compound `CCn1nccc1C(=O)N[C@H](C(=O)Nc1ccc([C@H](C)[C@@H](NC(=O)C2(F)CCC2)C(=O)N2CCN(C)[C@H](C)C2)cc1F)[C@H]1CC[C@H](C)CC1` [Compound 482], the IC50 is 10 to 100 nM.
`CCn1nccc1C(=O)N[C@H](C(=O)Nc1ccc([C@H](C)[C@@H](NC(=O)OC)C(=O)N2CCN(C)CC2)cc1F)[C@H]1CC[C@H](C)CC1` [Compound 483]: the IC50 is 10 to 100 nM.
`CCn1nccc1C(=O)N[C@H](C(=O)Nc1ccc([C@H](C)[C@@H](NC(=O)OC2CC2)C(=O)N2CCN(C)CC2)cc1F)[C@H]1CC[C@H](C)CC1` [Compound 484]: the IC50 is 10 to 100 nM.
On to `CCn1nccc1C(=O)N[C@H](C(=O)Nc1ccc([C@H](C)[C@@H](NS(=O)(=O)CC)C(=O)N2CCN(C)CC2)cc1F)[C@H]1CC[C@H](C)CC1` [Compound 485], for which the IC50 was 10 to 100 nM.
The same measure, in the same setting: next, `CCn1nccc1C(=O)N[C@H](C(=O)Nc1ccc([C@H](C)[C@@H](NC(=O)c2ccnn2C2CCN(C)CC2)C(=O)N2CCN(C)CC2)cc1F)[C@H]1CC[C@H](C)CC1` [Compound 486]: 10 to 100 nM; `CCn1nccc1C(=O)N[C@H](C(=O)Nc1ccc([C@H](C)[C@@H](NC(=O)N(C)C2CC2)C(=O)N2CCN(C)CC2)cc1F)[C@H]1CC[C@H](C)CC1` [Compound 488]: under 10 nM; `CCc1nonc1C(=O)N[C@H](C(=O)Nc1ccc([C@H](C)[C@@H](NC(=O)c2nonc2C)C(=O)N2CCN(C)CC2)cc1F)[C@H]1CC[C@H](C)CC1` [Compound 489]: 10 to 100 nM.
Regarding `CCc1nonc1C(=O)N[C@H](C(=O)Nc1ccc([C@H](C)[C@@H](NC(=O)c2ccnn2C)C(=O)N2CCN(C)CC2)cc1F)[C@H]1CC[C@H](C)CC1` [Compound 490], the IC50 was 10 to 100 nM.
For `CCc1nonc1C(=O)N[C@H](C(=O)Nc1ccc([C@H](C)[C@@H](NC(=O)[C@H](C)F)C(=O)N2CCN(C)CC2)cc1F)[C@H]1CC[C@H](C)CC1` [Compound 491], the IC50 is 10 to 100 nM.
For the compound `CCc1nonc1C(=O)N[C@H](C(=O)Nc1ccc([C@H](C)[C@@H](NC(=O)CC2CC2)C(=O)N2CCN(C)CC2)cc1F)[C@H]1CC[C@H](C)CC1` [Compound 492], the IC50 is under 10 nM.
For the compound `CCc1nonc1C(=O)N[C@H](C(=O)Nc1ccc([C@H](C)[C@@H](NC(=O)[C@H](C)CC(=O)O)C(=O)N2CCN(C)CC2)cc1F)[C@H]1CC[C@H](C)CC1` [Compound 493], the IC50 is 10 to 100 nM.
Regarding `CCc1nonc1C(=O)N[C@H](C(=O)Nc1ccc([C@H](C)[C@@H](NC(=O)C(C)C)C(=O)N2CCN(C)CC2)cc1F)[C@H]1CC[C@H](C)CC1` [Compound 494], the IC50 is under 10 nM.
On the same count and under the same terms, next, `CCc1nonc1C(=O)N[C@H](C(=O)Nc1ccc([C@H](C)[C@@H](NC(=O)C(C)(C)F)C(=O)N2CCN(C)CC2)cc1F)[C@H]1CC[C@H](C)CC1` [Compound 495]: 10 to 100 nM; `CCc1nonc1C(=O)N[C@H](C(=O)Nc1ccc([C@H](C)[C@@H](NC(=O)[C@H](C)OC)C(=O)N2CCN(C)CC2)cc1F)[C@H]1CC[C@H](C)CC1` [Compound 497]: under 10 nM; `CCc1nonc1C(=O)N[C@H](C(=O)Nc1ccc([C@H](C)[C@@H](NC(=O)[C@@H]2CCCO2)C(=O)N2CCN(C)CC2)cc1F)[C@H]1CC[C@H](C)CC1` [Compound 498]: 10 to 100 nM.
As to `CCc1nonc1C(=O)N[C@H](C(=O)Nc1ccc([C@H](C)[C@@H](NC(=O)COC)C(=O)N2CCN(C)CC2)cc1F)[C@H]1CC[C@H](C)CC1` [Compound 499], the IC50 was under 10 nM.
Consider `CCc1nonc1C(=O)N[C@H](C(=O)Nc1ccc([C@H](C)[C@@H](NC(=O)[C@@H](C)F)C(=O)N2CCN(C)CC2)cc1F)[C@H]1CC[C@H](C)CC1` [Compound 500], for which the IC50 is under 10 nM.
The same measure, in the same setting: next, `CCc1nonc1C(=O)N[C@H](C(=O)Nc1ccc([C@H](C)[C@@H](NC(=O)C(C)(F)F)C(=O)N2CCN(C)CC2)cc1F)[C@H]1CC[C@H](C)CC1` [Compound 501]: 10 to 100 nM; `CCc1nonc1C(=O)N[C@H](C(=O)Nc1ccc([C@H](C)[C@@H](NC(=O)C(C)(F)F)C(=O)N2CCN(C)[C@H](C)C2)cc1F)[C@H]1CC[C@H](C)CC1` [Compound 503]: 10 to 100 nM.
The same measure, in the same setting: next, `CCc1nonc1C(=O)N[C@H](C(=O)Nc1ccc([C@H](C)[C@@H](NC(=O)C(F)(F)CC)C(=O)N2CCN(C)[C@H](C)C2)cc1F)[C@H]1CC[C@H](C)CC1` [Compound 504]: under 10 nM; `CCc1nonc1C(=O)N[C@H](C(=O)Nc1ccc([C@H](C)[C@@H](NC(=O)C2(F)CCC2)C(=O)N2CCN(C)[C@H](C)C2)cc1F)[C@H]1CC[C@H](C)CC1` [Compound 505]: 10 to 100 nM; `CCc1nonc1C(=O)N[C@H](C(=O)Nc1ccc([C@H](C)[C@@H](NC(=O)CC2CC2)C(=O)N2CCN(C)[C@@H](C)C2)cc1F)[C@H]1CC[C@H](C)CC1` [Compound 506]: under 10 nM.
